For one experiment, the target named is T1, human recombinant sEH (Homo sapiens, UniProt P34913).
T1 construct: purchased 10011671
T1 sequence (P34913 1-555): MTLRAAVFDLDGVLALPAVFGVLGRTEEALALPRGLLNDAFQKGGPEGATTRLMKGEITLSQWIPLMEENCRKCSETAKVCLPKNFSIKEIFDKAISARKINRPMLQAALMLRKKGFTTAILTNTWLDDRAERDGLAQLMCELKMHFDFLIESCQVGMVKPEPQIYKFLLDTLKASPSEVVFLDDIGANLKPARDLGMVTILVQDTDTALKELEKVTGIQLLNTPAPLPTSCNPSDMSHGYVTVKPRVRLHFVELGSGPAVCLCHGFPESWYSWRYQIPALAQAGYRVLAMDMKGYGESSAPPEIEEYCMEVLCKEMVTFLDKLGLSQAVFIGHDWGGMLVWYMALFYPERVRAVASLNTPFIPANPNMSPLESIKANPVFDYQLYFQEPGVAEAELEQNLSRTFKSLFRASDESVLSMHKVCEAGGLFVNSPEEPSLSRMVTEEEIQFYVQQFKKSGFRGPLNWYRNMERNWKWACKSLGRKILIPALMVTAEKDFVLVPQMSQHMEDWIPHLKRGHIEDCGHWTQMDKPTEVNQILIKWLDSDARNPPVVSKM
Briefly: Cell-free sEH activity assay (PHOME fluorescence, inhibitor screening kit). Type of experiment: biochemical. The conditions noted are these: for remaining activity at 10 µM: compound at 10 μM, percentage of vehicle control (DMSO) = 100%, n = 3, read-out: Residual activity of sEH, mean ± SD (%); for IC50: threefold dilutions from 30,000 to 1.52 nM, read-out: IC50 (µM), mean ± SD for sEH. The text has this:
When the epoxide moiety of PHOME is hydrolyzed by the epoxide hydrolase, an intramolecular cyclization occurs, which results in the release of a cyanohydrin under basic conditions. The cyanohydrin quickly decomposes into cyanide ion and the highly fluorescent 6‐Methoxy‐2‐naphthaldehyde, which can be analyzed. The signal was detected (λex 330 nm, λem 465 nm) on an EnSpire™ Multimode Plate Reader (PerkinElmer).
The reaction was initiated by adding a small amount of a no-fluorescent substrate called PHOME. When sEH hydrolyzes PHOME, it triggers a chemical reaction that ultimately produces a fluorescent compound. The fluorescence emitted by this compound was measured using a plate reader, which allowed the researchers to analyze the enzyme activity and determine the effectiveness of the test compounds in inhibiting sEH.

Another experiment has as its system HCT-116 cells. In words: Cell survival index (MTT assay and cell count) in HCT-116 CRC cells. Type of experiment: cell-based, human. The conditions noted are these: 48 h of incubation, cell survival index, n = 24, read-out: IC50 ± SD (µM) HCT-116. How it is done: HCT‐116 cells (CCL‐247 ™), an epithelial‐like carcinoma cell line isolated from the colon of an adult with colon cancer, were purchased from ATCC and cultured in Roswell Park Memorial Institute (Invitrogen) supplemented with 10% fetal bovine serum (FBS, Cambrex), L‐glutamine (2 mM, Sigma), penicillin (100 units/mL, Sigma), and streptomycin (100 μg/mL, Sigma), and cultured in a humidified 5% carbon dioxide atmosphere at 37°C, according to ATCC recommendations.^[ [58] ^]
(§1) Bioactivity and cell responses to in vitro treatment with 1f, 2b, 2c, and 2d compounds were investigated through the estimation of a “cell survival index,” arising from the combination of cell viability evaluation with cell counting. The cell survival index is calculated as the arithmetic mean between the percentage values derived from the 3‐(4,5‐dimethyl‐2‐thiazolyl) 2,5‐diphenyl‐2‐H‐tetrazolium bromide (MTT) assay and the automated cell count.^[ [67] ^] HCT‐116 and HaCaT were inoculated in 96‐microwell culture plates at a density of 10^4 cells/well and allowed to grow for 24 h. Subsequently, the culture medium was exchanged with fresh medium, and cells were exposed to different concentrations (0→50 µM) of compounds 1f, 2b−2d under investigation for an additional 48 h. After the treatments, the medium was removed, and the cells were incubated with 20 μL/well of an MTT solution (5 mg/mL MTT, Sigma) for 1 h in a humidified 5% CO2 incubator at 37°C. The incubation was stopped by removing the MTT solution and by adding 100 μL/well of DMSO to solubilize the obtained formazan. Finally, the absorbance was monitored at 550 nm using a microplate reader (iMark microplate reader, Bio‐Rad). Cell number was determined by TC20 automated cell counter (Bio‐Rad), which uses disposable slides, TC20 trypan blue dye (0.4% trypan blue dye w/v in 0.81% sodium chloride and 0.06% potassium phosphate dibasic solution), and a CCD camera to count cells based on the analyses of captured images. The medium was removed, and the cells were collected. Ten microliters of cell suspension, mixed with 0.4% trypan blue solution at a 1:1 ratio, were loaded into the chambers of disposable slides. The results are expressed in terms of total cell count (cell number/mL). […] Total counts and live/dead ratio from random samples for each cell line were subjected to comparisons with manual hemocytometers in control experiments. […] Concentration‐effect curves were obtained with nonlinear regression using GraphPad Prism 8.0 curve‐fitting software.^[ [67] ^]
(§2) Experiments on HTC-116 and HaCat cell lines: The bioactivity and cellular responses to treatment 2d were evaluated by calculating a "cell survival index." This index combines results from cell viability tests (using the MTT assay) and cell counting. HCT-116 and HaCaT cells were grown in 96-well plates for 24 hours, after which they were treated with various concentrations of the compounds for an additional 48 hours. After treatment, cell viability was assessed by incubating the cells with MTT solution, which results in the formation of formazan crystals. These crystals were dissolved in DMSO, and the absorbance was measured to determine cell viability.
In general terms: Tetrazolium dyes change colour on reduction, which living cells bring about.

For a further experiment, the system named is HaCaT cells. Briefly: Cell survival index (MTT assay and cell count) in HaCaT keratinocytes. The conditions noted are these: 48 h of incubation, cell survival index, n = 24, healthy control cells, read-out: IC50 ± SD (µM) HaCat. Type of experiment: cell-based, human. How it is done:
HaCaT cells, human immortalized keratinocytes (kindly provided by Dr. Valeria Cicatiello at Italian National Research Council (CNR), Institute of Genetics and Biophysics), were maintained in a humidified 5% CO2 atmosphere at 37°C and grown in DMEM (Invitrogen) supplemented with 10% fetal bovine serum (FBS, Cambrex), L‐glutamine (2 mM), penicillin (100 units/mL, Sigma‐Aldrich), and streptomycin (100 μg/mL). Cells were seeded at a density between 2 and 4 × 10^4 cells/cm^2 and cultured to about 80%–90% confluence.^[ [66] ^] HaCaT cells provide ideal in vitro cell systems to study biocompatibility and toxicological cellular responses.
as §1, §2

Another experiment addresses T2, mPGES-1 (Homo sapiens, UniProt O14684).
T2 construct: endogenous in cells; host or cells: A549 cells stimulated with IL-1β; microsomal fraction
T2 sequence (O14684 1-152): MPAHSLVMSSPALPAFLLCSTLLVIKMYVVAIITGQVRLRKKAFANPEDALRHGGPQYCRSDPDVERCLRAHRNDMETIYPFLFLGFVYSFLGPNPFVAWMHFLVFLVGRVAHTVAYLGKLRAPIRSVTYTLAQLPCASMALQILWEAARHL
Briefly: Cell-free mPGES-1 activity assay (microsomes of IL-1β-stimulated A549 cells, PGE2 formation by RP-HPLC). Type of experiment: biochemical. The conditions noted are these: for Residual activity of mPGES-1, mean ± SD (%) / remaining activity at 10 µM: compound at 10 μM, percentage of vehicle control (DMSO) = 100%, n = 3; for Residual activity of mPGES-1, mean ± SD (%): 10 µM; for remaining activity at 10 µM: read-out: Residual activity of mPGES-1, mean ± SD (%); for IC50: cell-free, A549 microsomes, read-out: IC50 (µM), mean ± SD for mPGES-1. How it is done: Compounds 1a–f and 2a–d were submitted to a cell‐free assay mPGES‐1^[ [52] ^] to validate the inhibitory activity predicted in silico.
Microsomes of A549 cells containing mPGES‐1 were used as enzyme sources. In brief, A549 cells were stimulated with interleukin‐1β (IL‐1β) (2 ng/mL) for 48 h, harvested, and sonicated. The lysate was first centrifugated at 10,000g (10 min), and then at 174,000g for (1 h) at 4°C. The pellet (microsomal fraction) was resuspended in 1 ml homogenization buffer (0.1 M potassium phosphate buffer, pH = 7.4, 1 mM phenylmethanesulfonyl fluoride, 60 µg/mL soybean trypsin inhibitor, 1 µg/mL leupeptin, 2.5 mM GSH, and 250 mM sucrose), the total protein concentration was determined, and microsomes were diluted in potassium phosphate buffer (0.1 M, pH 7.4) containing GSH (2.5 mM) and seeded in a 96‐well plate. […] After 1 min, the addition of 100 µL of a stop solution (40 mM FeCl3, 80 mM citric acid, and 10 µM 11β‐PGE2) blocked the reaction. PGE2 and 11β‐PGE2 were extracted by solid‐phase extraction, and PGE2 formation was quantified by RP‐HPLC.^[ [52] ^]
mPGES-1 activity assay: Microsomes from A549 cells, which contain the enzyme mPGES-1, were used in an experiment to study the production of PGE2. The A549 cells were first stimulated with IL-1β for 48 hours, then harvested and broken down by sonication. The resulting cell lysate was subjected to two rounds of centrifugation to isolate the microsomal fraction. The microsomes were diluted and placed in a 96-well plate, where they were preincubated with various compounds or a control solution. The production of PGE2 was triggered by adding a substrate, and the reaction was stopped after one minute. PGE2 was then extracted and quantified using HPLC.

The next experiment concerns mPGES-1 from A549 cells. The arrangement: method as in earlier work. The conditions noted are these: cited from earlier work.
The subject of experiment [1] is human recombinant mPGES-1. Also noted: method as in earlier work. The conditions noted are these: cited from earlier work.

The structures appear in SMILES notation. Like-named read-outs stand apart in the source and are kept apart here.

Take `Cc1[nH]c(C(=O)Nc2ccc(C(C)O)cc2)cc1C(=O)c1ccccc1` (racemic) [Compound 1d, (±) 4‐Benzoyl‐N‐[4‐(1‐hydroxyethyl)phenyl]‐5‐methyl‐1H‐pyrrole‐2‐carboxamide]: at human recombinant sEH, the remaining activity at 10 µM worked out at 93.4 ± 0.6%.

On to `N.N.[Cl][Pt][Cl]` [Cisplatin, reference compound], for which the IC50 in the experiment on HCT-116 cells was 9 ± 3 µM; in the experiment on HaCaT cells, 20 ± 3 µM.

As for `Cc1[nH]c(C(=O)Nc2ccc3ccccc3n2)cc1C(=O)c1ccccc1` [Compound 1b, 4‐benzoyl‐5‐methyl‐N‐(quinolin‐2‐yl)‐1H‐pyrrole‐2‐carboxamide], at mPGES-1, the “Residual activity of mPGES-1, mean ± SD (%)” value is recorded as 55.6 ± 2.9% and the remaining activity at 10 µM was ~55%. Moreover, the remaining activity at 10 µM at human recombinant sEH was determined as 71.8 ± 4.7%.

On to `Cc1ccc(NC(=O)c2cc(C(=O)c3ccccc3)c(C)[nH]2)cc1C` [Compound 1c, 4‐Benzoyl‐N‐(3,4‐dimethylphenyl)‐5‐methyl‐1H‐pyrrole‐2‐carboxamide], for which the figures for the remaining activity at 10 µM on mPGES-1 and at human recombinant sEH were 65.5 ± 3.7% and 47.7 ± 2.9%, respectively.

For `Cc1[nH]c(C(=O)Nc2cc(Cl)cc(Cl)c2)cc1C(=O)c1ccccc1` [Compound 1e, 4‐benzoyl‐N‐(3,5‐dichlorophenyl)‐5‐methyl‐1H‐pyrrole‐2‐carboxamide], the remaining activity at 10 µM on mPGES-1 turned out to be 73.4 ± 5.2%; at human recombinant sEH it was 86.9 ± 4.8%.

On to `Cc1[nH]c(C(=O)Nc2cc(N)cc(C(F)(F)F)c2)cc1C(=O)c1ccccc1` [Compound 1f, N‐[3‐Amino‐5‐(trifluoromethyl)phenyl]‐4‐benzoyl‐5‐methyl‐1H‐pyrrole‐2‐carboxamide], for which the “Residual activity of mPGES-1, mean ± SD (%)” value on mPGES-1 was determined as 47.6 ±4.4%. Also, the remaining activity at 10 µM at mPGES-1 was ~50%; at human recombinant sEH it was 36.1 ± 5.1%. In addition, the IC50 turned out to be 5 ± 0.9 µM at human recombinant sEH; 25 ± 2 µM with HCT-116 cells (Homo sapiens, HCT-116); 37 ± 3 µM in the experiment with HaCaT cells (Homo sapiens, HaCaT).

For the molecule `CCc1ccccc1NC(=O)c1cc(C(=O)c2ccc3ccccc3c2)c(C)[nH]1` [Compound 2a, 4‐(2‐Naphthoyl)‐N‐(2‐ethylphenyl)‐5‐methyl‐1H‐pyrrole‐2‐carboxamide], the values for the remaining activity at 10 µM at mPGES-1 and at human recombinant sEH were 83.4 ± 4% and 74.3 ± 3.6%, respectively.

Consider `Cc1ccc(NC(=O)c2cc(C(=O)c3ccc4ccccc4c3)c(C)[nH]2)cc1O` [Compound 2b, 4‐(2‐Naphthoyl)‐N‐(3‐hydroxy‐4‐methylphenyl)‐5‐methyl‐1H‐pyrrole‐2‐carboxamide], for which the concentration for half-maximal inhibition (IC50) at mPGES-1 was found to be 3.3 ± 0.5 µM; at human recombinant sEH, 1.5 ± 0.2 µM; in the experiment on HCT-116 cells (Homo sapiens, HCT-116) it was 42 ± 1 µM; in the experiment with HaCaT cells (Homo sapiens, HaCaT) it was 31 ± 4 µM. The values for the remaining activity at 10 µM at mPGES-1 and on human recombinant sEH were 17.6 ± 0.3% and 21.7 ± 4.2%, respectively.

In the case of `COc1ccc(NC(=O)c2cc(C(=O)c3ccc4ccccc4c3)c(C)[nH]2)cc1O` [Compound 2c, 4‐(2‐Naphthoyl)‐N‐(3‐hydroxy‐4‐methoxyphenyl)‐5‐methyl‐1H‐pyrrole‐2‐carboxamide], the IC50 at mPGES-1 turned out to be 4 ± 1.1 µM; on human recombinant sEH, 6.3 ± 1.1 µM; in the experiment with HCT-116 cells (Homo sapiens, HCT-116), 44 ± 3 µM; in the experiment with HaCaT cells (Homo sapiens, HaCaT), 43 ± 2 µM. Further, the remaining activity at 10 µM at mPGES-1 stood at 30.4 ± 1.9%; on human recombinant sEH it was 47.2 ± 2.5%.

On to `Cc1[nH]c(C(=O)Nc2ccc(Cl)c(CO)c2)cc1C(=O)c1ccc2ccccc2c1` [Compound 2d, 4‐(2‐Naphthoyl)‐N‐[4‐chloro‐3‐(hydroxymethyl)phenyl]‐5‐methyl‐1H‐pyrrole‐2‐carboxamide], for which the IC50 at mPGES-1 is 4.5 ± 1.3 µM; at human recombinant sEH, 7.6 ± 1 µM; in the experiment with HCT-116 cells (Homo sapiens, HCT-116), 39 ± 2 µM; with HaCaT cells (Homo sapiens, HaCaT), 22 ± 2 µM. The remaining activity at 10 µM at mPGES-1 worked out at 21.5 ± 2.9%; on human recombinant sEH, 41.6 ± 3.1%.

Turning to `CCCCCCCCCCCC(=O)c1c(C)c(CCC(=O)O)n(C)c1C` [I, 3-(4-dodecanoyl-1,3,5-trimethyl-1H-pyrrol-2-yl)propanoic acid], in the experiment with mPGES-1 from A549 cells, the “Inhibition of mPGES-1 from A549 cells at 3.3 μM [%]” value is 74±8 (n=5) %. The “Inhibition of human recombinant mPGES-1 at 1μM [%]” value in experiment [1] is on record as 54±8 (n=7) %.

As usually defined, the IC50 is the concentration at which inhibition is half-maximal.

Source of the values: PMC11653428, “5‐methyl‐2‐carboxamidepyrrole‐based novel dual mPGES‐1/sEH inhibitors as promising anticancer candidates” (Archiv Der Pharmazie, 2024).
